Results taken from PMC5386260, “Acute development of cortical porosity and endosteal naïve bone formation from the daily but not weekly short-term administration of PTH in rabbit” (PLoS ONE, 2017).

How the values were obtained:
renal function = conditions: rabbit, in vivo
Protocol: The serum samples collected for measurement of bone metabolic markers were also subjected to biochemical analysis to examine renal function. Serum blood urea nitrogen (BUN) and creatinine were measured using an autoanalyzer (Hitachi 7180 chemistry analyzer; Hitachi Ltd, Tokyo, Japan). Blood samples in all groups were collected at 0, 6, 24 hours after the administration of TPTD on days 1 and 22. Blood samples in the C, […] and […] groups were also collected at days 3 and 7 after on the 1st and 22nd days of administration. The samples were centrifuged at 1700 x g, at 4°C for 15 minutes in tubes with clot activator and serum was collected in order to measure the concentration of osteocalcin.

[1] = test system: kidneys, thyroid and parathyroid; test: Histopathological examination of kidney, thyroid and parathyroid; conditions: rabbit, in vivo
Protocol: Calcein (Dojindo Laboratories, Kumamoto, Japan) was subcutaneously injected into each animal at a dose of 10 mg/kg body weight on days 13 and 5 before sacrifice for bone double labeling (1-7-1-3). After the dosing period, the animals were euthanized by exsanguination under anesthesia using thiopental. The left and right tibiae were collected for a micro-CT analysis and histomorphometry, respectively. The kidneys, thyroid and parathyroid of all animals were collected and fixed in 10% neutral buffered formalin for a histopathological examination. The left tibiae were packed in plastic bags and stored at -30°C until use in a micro-CT analysis and mechanical testing. The right tibiae were fixed in 70% ethanol, stained with Villanueva bone stain, dehydrated in a graded ethanol series, defatted in acetone, and embedded in polymethyl methacrylate (Wako Pure Chemical Industries, Osaka, Japan). Thin ground sections of 10–20 μm in thickness were prepared using a micro cutting machine and a grinding machine (EXAKT, Germany) from a cross-section at a plane that was 3 mm proximal from the tibiofibular junction, and were subjected to bone histomorphometry. Right iliac crest were also fixed in 70% ethanol and processed for Vilanueva bone stain, dehydration, defattation, polymethyl methacrylate embedding and sectioning to 5 μm for three-dimensional second harmonic generation (3D-SHG) imaging. […]

[2] = Plasma TPTD concentration and pharmacokinetics (Rat PTH IRMA Kit, non-compartmental model); format: in vivo, rabbit
Excerpt: Seventeen female New Zealand White rabbits (Kbl:NZW) were purchased from Kitayama Labs (Nagano, Japan) and were allowed to acclimatize with free access to water and food for 6 days before use. Throughout the experimental study, the animals were housed individually under a 12-h light/dark cycle with free access to water, but their food intake was restricted to 120g /day (LRC4, standard diet for rabbits; Oriental Yeast, Tokyo, Japan). The animals at 6 months of age were divided into 5 groups and were subcutaneously injected with 20 or 40 μg/kg of TPTD once-daily (D20 group [n = 3] and D40 group [n = 3], 140 or 280 μg/kg of TPTD once-weekly (W140 group [n = 3] and W280 group [n = 4]) for four weeks (Table 1). For the high-dose administration of TPTD, the dosage in once-daily treatment was set at 40 μg/kg/day based on a previous study, while the dosage of once-weekly TPTD treatment was set at 280 μg/kg/week; thus, the cumulative dose of TPTD each week was the same with the two treatment frequencies. In the W140 and W280 groups, saline was administered every day, except for the days on which TPTD was administered. Saline injections were administered to control animals (C group, n = 4) once daily and to each group as a vehicle.
[…] The samples were centrifuged at 1600 x g, at 4°C for 10 minutes and plasma samples were collected in order to measure the concentration of TPTD. […]
Teriparatide acetate was synthesized at Asahi Kasei Pharma Corporation (Tokyo, Japan) and was used as a standard substance. The teriparatide acetate concentration in the rabbit plasma was quantified using a Rat PTH IRMA Kit (Immutopics, Inc., San Clemente, CA) according to the manufacturer’s instructions. The pharmacokinetic parameters were calculated using a non-compartmental model (Phoenix WinNonlin; Pharsight, Mountain View, CA).

CC[C@H](C)[C@H](NC(=O)[C@H](CCC(=O)O)NC(=O)[C@H](CO)NC(=O)[C@@H](NC(=O)[C@@H](N)CO)C(C)C)C(=O)N[C@@H](CCC(N)=O)C(=O)N[C@@H](CC(C)C)C(=O)N[C@@H](CCSC)C(=O)N[C@@H](Cc1cnc[nH]1)C(=O)N[C@@H](CC(N)=O)C(=O)N[C@@H](CC(C)C)C(=O)NCC(=O)N[C@@H](CCCCN)C(=O)N[C@@H](Cc1cnc[nH]1)C(=O)N[C@@H](CC(C)C)C(=O)N[C@@H](CC(N)=O)C(=O)N[C@@H](CO)C(=O)N[C@@H](CCSC)C(=O)N[C@@H](CCC(=O)O)C(=O)N[C@@H](CCCN=C(N)N)C(=O)N[C@H](C(=O)N[C@@H](CCC(=O)O)C(=O)N[C@@H](Cc1c[nH]c2ccccc12)C(=O)N[C@@H](CC(C)C)C(=O)N[C@@H](CCCN=C(N)N)C(=O)N[C@@H](CCCCN)C(=O)N[C@@H](CCCCN)C(=O)N[C@@H](CC(C)C)C(=O)N[C@@H](CCC(N)=O)C(=O)N[C@@H](CC(=O)O)C(=O)N[C@H](C(=O)N[C@@H](Cc1cnc[nH]1)C(=O)N[C@@H](CC(N)=O)C(=O)N[C@@H](Cc1ccccc1)C(=O)O)C(C)C)C(C)C [TPTD, Teriparatide]
level of serum blood urea nitrogen (BUN), effect of TPTD (renal function): not significantly affected | level of serum creatinine, effect of TPTD (renal function): not significantly affected | general histopathological examination, toxic effects [1]: No obvious toxic effects were observed in any specimens | time for plasma TPTD levels to return to the basal levels ([2]; all of the dosage regimens): ≤ 3 h | plasma TPTD concentration relative to Cmax by 2h ([2]; all regimens (D20, D40, W140, W280), 2h post-dose): less than 40 % of Cmax | level at 5 min ([2]; female, New Zealand White (Kbl:NZW), rabbit, plasma, sc, 20 ug/kg, Day 1, 5 min, D20 (20 μg/kg sc once-daily), n=3, IRMA, mean): 7.14 ng/mL | level at 0.25 h ([2]; female, New Zealand White (Kbl:NZW), rabbit, plasma, sc, 20 ug/kg, Day 1, 15 min, D20 (20 μg/kg sc once-daily), n=3, IRMA, mean): 14.9 ng/mL | level at 0.5 h ([2]; female, New Zealand White (Kbl:NZW), rabbit, plasma, sc, 20 ug/kg, Day 1, 30 min, D20 (20 μg/kg sc once-daily), n=3, IRMA, mean): 19.8 ng/mL | level at 1 h ([2]; female, New Zealand White (Kbl:NZW), rabbit, plasma, sc, 20 ug/kg, Day 1, 1 hour, D20 (20 μg/kg sc once-daily), n=3, IRMA, mean): 11.8 ng/mL | level at 2 h ([2]; female, New Zealand White (Kbl:NZW), rabbit, plasma, sc, 20 ug/kg, Day 1, 2 hour, D20 (20 μg/kg sc once-daily), n=3, IRMA, mean): 1.77 ng/mL | level at 5 min ([2]; female, New Zealand White (Kbl:NZW), rabbit, plasma, sc, 20 ug/kg, Day 22, 5 min, D20 (20 μg/kg sc once-daily), n=3, IRMA, mean): 7.06 ng/mL | level at 0.25 h ([2]; female, New Zealand White (Kbl:NZW), rabbit, plasma, sc, 20 ug/kg, Day 22, 15 min, D20 (20 μg/kg sc once-daily), n=3, IRMA, mean): 17 ng/mL | level at 0.5 h ([2]; female, New Zealand White (Kbl:NZW), rabbit, plasma, sc, 20 ug/kg, Day 22, 30 min, D20 (20 μg/kg sc once-daily), n=3, IRMA, mean): 24.6 ng/mL | level at 1 h ([2]; female, New Zealand White (Kbl:NZW), rabbit, plasma, sc, 20 ug/kg, Day 22, 1 hour, D20 (20 μg/kg sc once-daily), n=3, IRMA, mean): 20.5 ng/mL | level at 2 h ([2]; female, New Zealand White (Kbl:NZW), rabbit, plasma, sc, 20 ug/kg, Day 22, 2 hour, D20 (20 μg/kg sc once-daily), n=3, IRMA, mean): 3.8 ng/mL | level at 24 h ([2]; female, New Zealand White (Kbl:NZW), rabbit, plasma, sc, 20 ug/kg, Day 22, 24 hour, D20 (20 μg/kg sc once-daily), n=3, IRMA, mean): 0.13 ng/mL | level at 5 min ([2]; female, New Zealand White (Kbl:NZW), rabbit, plasma, sc, 40 ug/kg, Day 1, 5 min, D40 (40 μg/kg sc once-daily), n=3, IRMA, mean): 9.83 ng/mL | level at 0.25 h ([2]; female, New Zealand White (Kbl:NZW), rabbit, plasma, sc, 40 ug/kg, Day 1, 15 min, D40 (40 μg/kg sc once-daily), n=3, IRMA, mean): 23.6 ng/mL | level at 0.5 h ([2]; female, New Zealand White (Kbl:NZW), rabbit, plasma, sc, 40 ug/kg, Day 1, 30 min, D40 (40 μg/kg sc once-daily), n=3, IRMA, mean): 34.3 ng/mL | level at 1 h ([2]; female, New Zealand White (Kbl:NZW), rabbit, plasma, sc, 40 ug/kg, Day 1, 1 hour, D40 (40 μg/kg sc once-daily), n=3, IRMA, mean): 29.9 ng/mL | level at 2 h ([2]; female, New Zealand White (Kbl:NZW), rabbit, plasma, sc, 40 ug/kg, Day 1, 2 hour, D40 (40 μg/kg sc once-daily), n=3, IRMA, mean): 10.6 ng/mL | level at 5 min ([2]; female, New Zealand White (Kbl:NZW), rabbit, plasma, sc, 40 ug/kg, Day 22, 5 min, D40 (40 μg/kg sc once-daily), n=3, IRMA, mean): 10.3 ng/mL | level at 0.25 h ([2]; female, New Zealand White (Kbl:NZW), rabbit, plasma, sc, 40 ug/kg, Day 22, 15 min, D40 (40 μg/kg sc once-daily), n=3, IRMA, mean): 32.7 ng/mL | level at 0.5 h ([2]; female, New Zealand White (Kbl:NZW), rabbit, plasma, sc, 40 ug/kg, Day 22, 30 min, D40 (40 μg/kg sc once-daily), n=3, IRMA, mean): 54 ng/mL | level at 1 h ([2]; female, New Zealand White (Kbl:NZW), rabbit, plasma, sc, 40 ug/kg, Day 22, 1 hour, D40 (40 μg/kg sc once-daily), n=3, IRMA, mean): 49.2 ng/mL | level at 2 h ([2]; female, New Zealand White (Kbl:NZW), rabbit, plasma, sc, 40 ug/kg, Day 22, 2 hour, D40 (40 μg/kg sc once-daily), n=3, IRMA, mean): 14 ng/mL | level at 5 min ([2]; female, New Zealand White (Kbl:NZW), rabbit, plasma, sc, 140 ug/kg, Day 1, 5 min, W140 (140 μg/kg sc once-weekly), n=3, IRMA, mean): 38 ng/mL | level at 0.25 h ([2]; female, New Zealand White (Kbl:NZW), rabbit, plasma, sc, 140 ug/kg, Day 1, 15 min, W140 (140 μg/kg sc once-weekly), n=3, IRMA, mean): 85.4 ng/mL | level at 0.5 h ([2]; female, New Zealand White (Kbl:NZW), rabbit, plasma, sc, 140 ug/kg, Day 1, 30 min, W140 (140 μg/kg sc once-weekly), n=3, IRMA, mean): 132 ng/mL | level at 1 h ([2]; female, New Zealand White (Kbl:NZW), rabbit, plasma, sc, 140 ug/kg, Day 1, 1 hour, W140 (140 μg/kg sc once-weekly), n=3, IRMA, mean): 121 ng/mL | level at 2 h ([2]; female, New Zealand White (Kbl:NZW), rabbit, plasma, sc, 140 ug/kg, Day 1, 2 hour, W140 (140 μg/kg sc once-weekly), n=3, IRMA, mean): 50.4 ng/mL | level at 5 min ([2]; female, New Zealand White (Kbl:NZW), rabbit, plasma, sc, 140 ug/kg, Day 22, 5 min, W140 (140 μg/kg sc once-weekly), n=3, IRMA, mean): 33.5 ng/mL | level at 0.25 h ([2]; female, New Zealand White (Kbl:NZW), rabbit, plasma, sc, 140 ug/kg, Day 22, 15 min, W140 (140 μg/kg sc once-weekly), n=3, IRMA, mean): 124 ng/mL
